Data: patent publication US6737383B1, “Herbicidal oxadiazolidines” (priority 1999, dated 2004)

How the values were obtained:
surinam grass = test: Test B pre/postemergence surinam grass; type: in vivo, Brachiaria decumbens
Outline: (§1)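 Herbicidal effect was estimated by eye on a ten-point control scale after plants spent twelve to sixteen days in a greenhouse following soil or foliar treatment. Foliar sprays targeted plants at one to four leaves; all doses were formulated in a non-phytotoxic solvent with surfactant.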

crabgrass = test: Test B pre/postemergence crabgrass; type: in vivo, Digitaria sanguinalis
Outline: as §1

smallflower flatsedge = test: Test B flood test smallflower flatsedge; type: in vivo, Cyperus difformis; conditions: Pre-emergence
Outline: (§2)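 Flood test on plants grown to the 2-leaf stage; treated plants kept in greenhouse twelve to sixteen days, then visually rated against controls on a 0 (no effect) to 10 (complete control) scale.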

morningglory = test: Test B pre/postemergence morningglory; type: in vivo, Ipomoea hederacea
Outline: as §1

wild oat = test: Test B pre/postemergence wild oat; type: in vivo, Avena fatua
Outline: as §1

bedstraw = test: Test B pre/postemergence bedstraw; type: in vivo, Galium aparine
Outline: as §1

blackgrass = test: Test B pre/postemergence blackgrass; type: in vivo, Alopecurus myosuroides
Outline: as §1

cocklebur = test: Test B pre/postemergence cocklebur; type: in vivo, Xanthium strumarium
Outline: as §1

pigweed = test: Test B pre/postemergence pigweed; type: in vivo, Amaranthus retroflexus
Outline: as §1

soybean = test: Test B pre/postemergence soybean; type: in vivo, Glycine max
Outline: as §1

velvetleaf = test: Test B pre/postemergence velvetleaf; type: in vivo, Abutilon theophrasti
Outline: as §1

wheat = test: Test B pre/postemergence wheat; type: in vivo, Triticum aestivum
Outline: as §1

giant foxtail = test: Test B pre/postemergence giant foxtail; type: in vivo, Setaria faberii
Outline: as §1

corn = test: Test B pre/postemergence corn; type: in vivo, Zea mays
Outline: as §1

rice = test: Test B flood test rice; type: in vivo, Oryza sativa; conditions: Pre-emergence
Outline: as §2

bamyardgrass = test: Test B flood test barnyardgrass; type: in vivo, Echinochloa crus-galli; conditions: Pre-emergence
Outline: as §2

[1] = Preemergence, Rate 62 g/ha, scale of 0 to 10 where 0 is no effect and 10 is complete control
[2] = Preemergence, Rate 250 g/ha, scale of 0 to 10 where 0 is no effect and 10 is complete control
[3] = Preemergence, Rate 500 g/ha, scale of 0 to 10 where 0 is no effect and 10 is complete control
[4] = Rate 62 g/ha, Postemergence, scale 0 to 10 (0 no effect, 10 complete control)
[5] = Rate 125 g/ha, Postemergence, scale of 0 to 10 where 0 is no effect and 10 is complete control
[6] = Rate 250 g/ha, Postemergence, scale of 0 to 10 where 0 is no effect and 10 is complete control
[7] = Rate 500 g/ha, Postemergence, scale 0 to 10, 0 no effect, 10 complete control
[8] = Rate 1000 g/ha, scale 0 to 10 (0 no effect, 10 complete control)
[9] = Rate 125 g/ha, flood test species, scale 0 to 10 where 0 is no effect and 10 is complete control
[10] = Rate 250 g/ha, flood-test species, scale 0 to 10, 0 is no effect, 10 is complete control
[11] = Rate 500 g/ha, flood test species, scale 0 to 10 (0 no effect, 10 complete control)

## COC(Cn1c(=O)on(C(=O)N(c2ccc(F)cc2)C(C)C)c1=O)OC [Compound 317]
Surinam grass; [1]
  B. signalgrass plant response rating: 5
Surinam grass; Preemergence, Rate 125 g/ha
  B. signalgrass plant response rating (0 to 10 scale, 0 is no effect, 10 is complete control): 6
Surinam grass; [2]
  B. signalgrass plant response rating: 7
Surinam grass; [3]
  B. signalgrass plant response rating: 8
Surinam grass; [4]
  B. signalgrass plant response rating: 0
Surinam grass; [5]
  B. signalgrass plant response rating: 1
Surinam grass; [6]
  Plant response rating, B. signalgrass: 7
Surinam grass; [7]
  B. signalgrass plant response rating: 8
crabgrass; [1]
  Crabgrass plant response rating: 6
crabgrass; Preemergence, Rate 125 g/ha
  Crabgrass plant response rating (0 to 10 scale): 7
crabgrass; [2]
  Crabgrass plant response rating: 8
crabgrass; [3]
  Crabgrass plant response rating: 8
crabgrass; [4]
  Crabgrass plant response rating: 2
crabgrass; [5]
  Crabgrass plant response rating: 5
crabgrass; [6]
  Plant response rating, Crabgrass: 8
Smallflower flatsedge; [8]
  S. Flatsedge plant response rating: 0
Smallflower flatsedge; [9]
  S. Flatsedge plant response rating: 0
Smallflower flatsedge; [10]
  S. Flatsedge plant response rating: 0
Smallflower flatsedge; [11]
  S. Flatsedge plant response rating: 0
morningglory; [1]
  Morningglory plant response rating: 0
morningglory; Preemergence, Rate 125 g/ha
  Morningglory plant response rating (0 to 10 scale): 0
morningglory; [2]
  Morningglory plant response rating: 0
morningglory; [3]
  Morningglory plant response rating: 0
morningglory; [4]
  Morningglory plant response rating: 1
morningglory; [5]
  Morningglory plant response rating: 3
morningglory; [6]
  Plant response rating, Morningglory: 3
Wild oat; [1]
  Wild oats plant response rating: 5
Wild oat; Preemergence, Rate 125 g/ha
  Wild oats plant response rating (0 to 10 scale): 8
Wild oat; [2]
  Wild oats plant response rating: 8
Wild oat; [3]
  Wild oats plant response rating: 10
Wild oat; [4]
  Wild oats plant response rating: 0
Wild oat; [5]
  Wild oats plant response rating: 0
Wild oat; [6]
  Plant response rating, Wild oats: 0
bedstraw; [1]
  Bedstraw plant response rating: 0
bedstraw; [4]
  Bedstraw plant response rating: 2
bedstraw; [5]
  Bedstraw plant response rating: 6
bedstraw; [6]
  Plant response rating, Bedstraw: 8
blackgrass; [1]
  Blackgrass plant response rating: 3
blackgrass; Preemergence, Rate 125 g/ha
  Blackgrass plant response rating (0 to 10 scale): 8
blackgrass; [2]
  Blackgrass plant response rating: 8
blackgrass; [3]
  Blackgrass plant response rating: 10
blackgrass; [4]
  Blackgrass plant response rating: 8
blackgrass; [5]
  Blackgrass plant response rating: 8
blackgrass; [6]
  Plant response rating, Blackgrass: 8
blackgrass; [7]
  Blackgrass plant response rating: 9
cocklebur; Preemergence, Rate 125 g/ha
  Cocklebur plant response rating (0 to 10 scale): 0
cocklebur; [3]
  Cocklebur plant response rating: 0
cocklebur; [4]
  Cocklebur plant response rating: 0
cocklebur; [5]
  Cocklebur plant response rating: 0
cocklebur; [6]
  Plant response rating, Cocklebur: 0
cocklebur; [7]
  Cocklebur plant response rating: 1
pigweed; [1]
  Redroot pigweed plant response rating: 2
pigweed; Preemergence, Rate 125 g/ha
  Redroot pigweed plant response rating (0 to 10 scale): 7
pigweed; [2]
  Redroot pigweed plant response rating: 7
pigweed; [3]
  Redroot pigweed plant response rating: 10
pigweed; [4]
  Redroot pigweed plant response rating: 0
pigweed; [5]
  Redroot pigweed plant response rating: 0
pigweed; [6]
  Plant response rating, Redroot pigweed: 3
soybean; [1]
  Soybean plant response rating: 0
soybean; Preemergence, Rate 125 g/ha
  Soybean plant response rating (0 to 10 scale): 0
soybean; [2]
  Soybean plant response rating: 0
soybean; [3]
  Soybean plant response rating: 4
soybean; [4]
  Soybean plant response rating: 3
soybean; [5]
  Soybean plant response rating: 4
soybean; [6]
  Plant response rating, Soybean: 6
velvetleaf; [1]
  Velvetleaf plant response rating: 1
velvetleaf; Preemergence, Rate 125 g/ha
  Velvetleaf plant response rating (0 to 10 scale): 6
velvetleaf; [2]
  Velvetleaf plant response rating: 6
velvetleaf; [3]
  Velvetleaf plant response rating: 8
velvetleaf; [4]
  Velvetleaf plant response rating: 0
velvetleaf; [5]
  Velvetleaf plant response rating: 0
velvetleaf; [6]
  Plant response rating, Velvetleaf: 0
wheat; [1]
  Wheat plant response rating: 1
wheat; Preemergence, Rate 125 g/ha
  Wheat plant response rating (0 to 10 scale): 2
wheat; [2]
  Wheat plant response rating: 7
wheat; [3]
  Wheat plant response rating: 8
wheat; [4]
  Wheat plant response rating: 0
wheat; [5]
  Wheat plant response rating: 1
wheat; [6]
  Plant response rating, Wheat: 5
Giant foxtail; [1]
  Giant foxtail plant response rating: 9
Giant foxtail; Preemergence, Rate 125 g/ha
  Giant foxtail plant response rating (0 to 10 scale): 10
Giant foxtail; [2]
  Giant foxtail plant response rating: 10
Giant foxtail; [3]
  Giant foxtail plant response rating: 10
Giant foxtail; [4]
  Giant foxtail plant response rating: 5
Giant foxtail; [5]
  Giant foxtail plant response rating: 5
Giant foxtail; [6]
  Plant response rating, Giant foxtail: 8
corn; [1]
  Corn plant response rating: 0
corn; Preemergence, Rate 125 g/ha
  Corn plant response rating (0 to 10 scale): 2
corn; [3]
  Corn plant response rating: 5
corn; [4]
  Corn plant response rating: 0
corn; [5]
  Corn plant response rating: 0
corn; [6]
  Plant response rating, Corn: 2
corn; [7]
  Corn plant response rating: 3
rice; [8]
  Rice plant response rating: 0
rice; [9]
  Rice plant response rating: 0
rice; [10]
  Rice plant response rating: 0
rice; [11]
  Rice plant response rating: 0
bamyardgrass; [8]
  Barnyardgrass plant response rating: 0
bamyardgrass; [9]
  Barnyardgrass plant response rating: 0
bamyardgrass; [10]
  Barnyardgrass plant response rating: 0
bamyardgrass; [11]
  Barnyardgrass plant response rating: 0
